# Reference: patent publication US20140230091A1, “MODIFIED PLANTS WITH INCREASED OIL CONTENT” (BROOKHAVEN SCIENCE ASSOCIATES, LLC, priority 2011, published 2014)
# Test system: Brassica napus cv Jet Neuf suspension cell cultures
# Assay: Cell culture growth and analysis of B. napus suspension cells fed Tween-80
# Format: cell-based
# Conditions: concentrations up to 10 mM
# Description: Brassica napus cv Jet Neuf suspension cell cultures were grown in NLN medium (Lichter 1982, Z. Pflanzenphysiol, 105, 427-434) with modifications (Shi et al. 2008, Plant Cell Tiss Org, 92 131-139). Cells were grown shaking at 160 rpm at 25° C. in either 50 mL or 100 mL volumes (in 125 mL or 250 mL flasks, respectively) under constant fluorescent light at 50 […]. Medium was refreshed every 48 h for experiments lasting longer than two days. Tween-esters were obtained from Sigma (St. Louis, Mo. USA). A 150 mM stock solution was made by dissolving 9.8 g in 50 mL of water and it was filter sterilized before addition to cultures. Subculturing was done every eight days and new cultures were inoculated with about 200 mg of cells. Cells were harvested by filtering with a Buchner funnel, were rinsed three times with distilled water, and were frozen immediately in liquid N2 in preweighed aluminum foil pouches. Dry weight to fresh weight ratio was determined by lyophilizing a known fresh weight of cells. For SDS-PAGE, proteins were extracted in 3 volumes (w/v) of 50 mM Tris-Cl, pH 7.5, 10 mM KCl, 5 mM MgCl2, 1 mM EDTA, 1 mM DTT, 0.1% Triton X-100, and were quantified by Bradford assay.
# In order to study the feedback regulation of fatty acid synthesis it was necessary to first establish conditions where fatty acids could be fed while minimizing any negative pleiotropic effects. […]
substance,measurement,value
Tween-80,effect on growth rate,no effect
